Species on record: Rattus norvegicus
Experiment: DrugMatrix - Regimen: Daily Repeat
Type: toxicity, organism-based, Sprague-Dawley
Set-up: regimen Daily Repeat, gender Male, age 6-8 weeks
Details: in vivo, po, route oral GAVAGE, […]; for ABSOLUTE BASOPHIL / ABSOLUTE EOSINOPHIL / ABSOLUTE LYMPHOCYTE / ABSOLUTE MONOCYTE / ABSOLUTE SEGMENTED NEUTROPHIL / BASOPHIL / EOSINOPHIL / ERYTHROCYTE COUNT / HEMATOCRIT / HEMOGLOBIN / LEUKOCYTE COUNT / LYMPHOCYTE / MEAN CORPUSCULAR HEMOGLOBIN / MEAN CORPUSCULAR HEMOGLOBIN CONCENTRATION / MEAN CORPUSCULAR VOLUME / MONOCYTE / NEUTROPHIL / NUCLEATED RED BLOOD CELLS / PLATELET COUNT: tissue Blood; for ALANINE AMINOTRANSFERASE / ALBUMIN / ALKALINE PHOSPHATASE / ASPARTATE AMINOTRANSFERASE / BLOOD UREA NITROGEN / CARBON DIOXIDE / CHLORIDE / CHOLESTEROL / CREATINE PHOSPHOKINASE / CREATININE / GLUCOSE / LACTATE DEHYDROGENASE / LIPASE / PHOSPHORUS / POTASSIUM / SODIUM / TOTAL BILIRUBIN / TOTAL PROTEIN / URIC ACID: tissue Plasma
[1] = 0 mg/kg, 72 h, dose level Control, time 3 day
[2] = 0 mg/kg, 120 h, dose level Control, time 5 day
[3] = 0.05 mg/kg, 72 h, dose level Low, time 3 day

COCc1c(C(C)C)nc(C(C)C)c(/C=C/[C@@H](O)C[C@@H](O)CC(=O)O)c1-c1ccc(F)cc1 [CERIVASTATIN]
ABSOLUTE BASOPHIL [1]: 0 CELLS/uL
ABSOLUTE EOSINOPHIL [1]: 0 CELLS/uL
ABSOLUTE LYMPHOCYTE [1]: 11091.17 CELLS/uL
ABSOLUTE MONOCYTE [1]: 172.17 CELLS/uL
ABSOLUTE SEGMENTED NEUTROPHIL [1]: 1186.67 CELLS/uL
BASOPHIL [1]: 0%
EOSINOPHIL [1]: 0%
ERYTHROCYTE COUNT [1]: 5.87 x10E6/uL
HEMATOCRIT [1]: 36.87%
HEMOGLOBIN [1]: 14.03 G/DL
LEUKOCYTE COUNT [1]: 12.45 x10E3/uL
LYMPHOCYTE [1]: 88.67%
MEAN CORPUSCULAR HEMOGLOBIN [1]: 23.93 pg
MEAN CORPUSCULAR HEMOGLOBIN CONCENTRATION [1]: 38.1 G/DL
MEAN CORPUSCULAR VOLUME [1]: 62.73 fL
MONOCYTE [1]: 1.5%
NEUTROPHIL [1]: 9.83%
NUCLEATED RED BLOOD CELLS [1]: 0 /100WBC
PLATELET COUNT [1]: 1150.33 x10E3/uL
ALANINE AMINOTRANSFERASE [1]: 67.17 u/L
ALBUMIN [1]: 4.03 G/DL
ALKALINE PHOSPHATASE [1]: 462.5 u/L
ASPARTATE AMINOTRANSFERASE [1]: 88 u/L
BLOOD UREA NITROGEN [1]: 13.17 mg/dL
CARBON DIOXIDE [1]: 29.33 mmol/L
CHLORIDE [1]: 101 MEQ/L
CHOLESTEROL [1]: 69.17 mg/dL
CREATINE PHOSPHOKINASE [1]: 292.5 u/L
CREATININE [1]: 0.17 mg/dL
GLUCOSE [1]: 167.5 mg/dL
LACTATE DEHYDROGENASE [1]: 198.5 u/L
LIPASE [1]: 10.67 u/L
PHOSPHORUS [1]: 11.73 mg/dL
POTASSIUM [1]: 5.91 MEQ/L
SODIUM [1]: 143.3 MEQ/L
TOTAL BILIRUBIN [1]: 0.18 mg/dL
TOTAL PROTEIN [1]: 5.7 G/DL
URIC ACID [1]: 1.3 mg/dL
ABSOLUTE BASOPHIL [2]: 0 CELLS/uL
ABSOLUTE EOSINOPHIL [2]: 64.33 CELLS/uL
ABSOLUTE LYMPHOCYTE [2]: 12494.67 CELLS/uL
ABSOLUTE MONOCYTE [2]: 117 CELLS/uL
ABSOLUTE SEGMENTED NEUTROPHIL [2]: 1340.67 CELLS/uL
BASOPHIL [2]: 0%
EOSINOPHIL [2]: 0.33%
ERYTHROCYTE COUNT [2]: 5.82 x10E6/uL
HEMATOCRIT [2]: 36.97%
HEMOGLOBIN [2]: 14.18 G/DL
LEUKOCYTE COUNT [2]: 14.02 x10E3/uL
LYMPHOCYTE [2]: 89%
MEAN CORPUSCULAR HEMOGLOBIN [2]: 24.42 pg
MEAN CORPUSCULAR HEMOGLOBIN CONCENTRATION [2]: 38.4 G/DL
MEAN CORPUSCULAR VOLUME [2]: 63.52 fL
MONOCYTE [2]: 0.83%
NEUTROPHIL [2]: 9.83%
NUCLEATED RED BLOOD CELLS [2]: 0 /100WBC
PLATELET COUNT [2]: 1097.83 x10E3/uL
ALANINE AMINOTRANSFERASE [2]: 58.83 u/L
ALBUMIN [2]: 3.92 G/DL
ALKALINE PHOSPHATASE [2]: 414.17 u/L
ASPARTATE AMINOTRANSFERASE [2]: 89.17 u/L
BLOOD UREA NITROGEN [2]: 16.83 mg/dL
CARBON DIOXIDE [2]: 29.17 mmol/L
CHLORIDE [2]: 100.33 MEQ/L
CHOLESTEROL [2]: 54.5 mg/dL
CREATINE PHOSPHOKINASE [2]: 386.17 u/L
CREATININE [2]: 0.23 mg/dL
GLUCOSE [2]: 184.17 mg/dL
LACTATE DEHYDROGENASE [2]: 229.17 u/L
LIPASE [2]: 10.83 u/L
PHOSPHORUS [2]: 10.88 mg/dL
POTASSIUM [2]: 5.97 MEQ/L
SODIUM [2]: 142.2 MEQ/L
TOTAL BILIRUBIN [2]: 0.12 mg/dL
TOTAL PROTEIN [2]: 5.63 G/DL
URIC ACID [2]: 1.55 mg/dL
ABSOLUTE BASOPHIL [3]: 0 CELLS/uL
ABSOLUTE EOSINOPHIL [3]: 0 CELLS/uL
ABSOLUTE LYMPHOCYTE [3]: 11310.33 CELLS/uL
ABSOLUTE MONOCYTE [3]: 175.33 CELLS/uL
ABSOLUTE SEGMENTED NEUTROPHIL [3]: 1347.67 CELLS/uL
BASOPHIL [3]: 0%
EOSINOPHIL [3]: 0%
ERYTHROCYTE COUNT [3]: 5.68 x10E6/uL
HEMATOCRIT [3]: 35.3%
HEMOGLOBIN [3]: 13.6 G/DL
LEUKOCYTE COUNT [3]: 12.83 x10E3/uL
LYMPHOCYTE [3]: 88.33%
MEAN CORPUSCULAR HEMOGLOBIN [3]: 23.97 pg
MEAN CORPUSCULAR HEMOGLOBIN CONCENTRATION [3]: 38.53 G/DL
MEAN CORPUSCULAR VOLUME [3]: 62.17 fL
MONOCYTE [3]: 1.33%
NEUTROPHIL [3]: 10.33%
NUCLEATED RED BLOOD CELLS [3]: 0 /100WBC
PLATELET COUNT [3]: 1230 x10E3/uL
ALANINE AMINOTRANSFERASE [3]: 65 u/L
ALBUMIN [3]: 4.07 G/DL
ALKALINE PHOSPHATASE [3]: 429 u/L
ASPARTATE AMINOTRANSFERASE [3]: 96.67 u/L
BLOOD UREA NITROGEN [3]: 15.67 mg/dL
CARBON DIOXIDE [3]: 25 mmol/L
CHLORIDE [3]: 103 MEQ/L
CHOLESTEROL [3]: 64 mg/dL
CREATINE PHOSPHOKINASE [3]: 269.33 u/L
CREATININE [3]: 0.13 mg/dL
GLUCOSE [3]: 169.67 mg/dL
LACTATE DEHYDROGENASE [3]: 270.33 u/L
LIPASE [3]: 10 u/L
PHOSPHORUS [3]: 12.17 mg/dL
POTASSIUM [3]: 6.2 MEQ/L
SODIUM [3]: 144.27 MEQ/L
TOTAL BILIRUBIN [3]: 0.13 mg/dL
TOTAL PROTEIN [3]: 5.63 G/DL
URIC ACID [3]: 1.9 mg/dL

Reference: ChEMBL document CHEMBL3885881, “DrugMatrix”
